Converted amounts (≈) assume the structure as drawn. “And” between values parts separate entries of the source, which are not always exact repeats. Equal values may be shown once. Read-outs that look alike come from different tables or passages of the source.
Columns and labels:
P388/ADR cells [1] = assay: In vitro growth inhibition of P388/ADR cells; assay type: cell-based, murine; conditions: for IC50: Mus musculus, P388/ADR, in vitro; for R/S: ratio resistant (P388/ADR) to sensitive (P388S) IC50
P388/ADR leukemia = assay: In vivo P388/ADR leukemia life span study; set-up: species or system CD2F1 mice; conditions: for P388/ADR T/C: maximum tolerated dose, i.p. Days 3-11 (Adriamycin Days 3, 7, 11), >130 = antitumor effect
[2] = system: Colon 26/clone 10 (C26/10); assay: Colon 26/clone 10 i.p. life span study; assay type: in vivo, CD2F1 mice; conditions: i.p. implant, treated i.p. Days 3-7 and 10-14 (Adriamycin Days 5, 9, 13); >130 = antitumor effect
Protocol: To test compounds of the present invention in vivo, the following methodology was used. P388 leukemia and its Adriamycin resistant subline, P388/ADR were passed weekly in DBA/2 mice as i.p. implants of 10^5 and 10^6 cells, respectively. Animals bearing P388/ADR passage were treated with 7 mg/kg Adriamycin on Day 3 post-implant as a resistance selection pressure. C26/clone 10 was passed every 2 weeks into Balb/c mice as tumor fragments (approximately 30 mg) which were obtained from tumors 1 g in mass.
Colon 26/clone 10 (C26/10) life span studies were conducted in CD2F1 mice. C26/C10 cells were implanted i.p. on Day 0. Animals were treated i.p. with test agents in the vehicles described above on Days 3-7 and 10-14. Adriamycin was dosed i.p. in saline on Days 5, 9, and 13. […] Percent T/C values in excess of 130 are indicative of an antitumor effect in this model.

P388 leukemia = assay: In vivo P388 leukemia life span study; set-up: species or system CD2F1 mice; conditions: maximum tolerated dose, i.p. Days 3-11 (Adriamycin Days 3, 7, 11); >130 = antitumor effect
P388S cells = assay: In vitro growth inhibition of P388S cells; assay type: cell-based; conditions: Mus musculus, P388/S; in vitro; read-out: P388S IC50
[3] = system: P388 murine leukemia cells; assay: Combination of antifolates with FU and LV on P388 proliferation; assay type: cell-based
P388/ADR cells [4] = assay: Combination of antifolates with FU and LV on P388/ADR proliferation; assay type: cell-based, murine; conditions: P388/ADR; for Antifol + FU / Antifol + LV / Antifol + LV + FU: antifolate 1 nM 24 hours; for Antifol + FU / Antifol + LV + FU: 5 μM FU final 4 hours; for Antifol + LV / Antifol + LV + FU: LV 10 μM final 4.5 hours; for Antifol: antifolate 1 nM, 24 hours
[5] = system: HT29 human colon adenocarcinoma cells
[6] = system: HT29 human colon adenocarcinoma cells; assay: Combination of antifolates with FU and LV on HT-29 proliferation (sulphorhodamine B)
[7] = system: C26 murine colon tumor cells; assay: Combination of antifolates with FU and LV on C26 proliferation; assay type: cell-based; conditions: C26; 5 μM FU alone, 4 hours
dihydrofolate reductase = molecular target: T1, dihydrofolate reductase (Homo sapiens, UniProt P00374); assay: Inhibition of dihydrofolate reductase (Table 1); assay type: biochemical
T1 sequence (P00374 1-187): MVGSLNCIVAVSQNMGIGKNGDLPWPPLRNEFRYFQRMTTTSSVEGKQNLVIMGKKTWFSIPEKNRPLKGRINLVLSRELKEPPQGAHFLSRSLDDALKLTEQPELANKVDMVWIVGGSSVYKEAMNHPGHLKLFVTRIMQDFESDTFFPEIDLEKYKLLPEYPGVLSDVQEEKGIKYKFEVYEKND

| SMILES | IC50 (P388/ADR cells [1]) [µg/mL] | R/S (P388/ADR cells [1]) | P388S T/C (P388 leukemia) [%] | IC50 (P388S cells) [µg/mL] | Antifol + FU (P388/ADR cells [4]) | Antifol + LV (P388/ADR cells [4]) | Antifol + LV + FU (P388/ADR cells [4]) | Antifol (P388/ADR cells [4]) | Ki (dihydrofolate reductase) [nM] | further results |
| --- | --- | --- | --- | --- | --- | --- | --- | --- | --- | --- |
| COc1cccc2c1C(=O)c1c(O)c3c(c(O)c1C2=O)C[C@@](O)(C(=O)CO)C[C@@H]3O[C@H]1C[C@H](N)[C@H](O)[C@H](C)O1 [Adriamycin, reference compound] | 3.9 (≈ 7.18 µM) | 52 | 250 | 0.075 (≈ 0.138 µM) | – | – | – | – | – | activity against P388/ADR tumors in vivo (P388/ADR leukemia; in words): inactive; P388/ADR T/C (P388/ADR leukemia): 108%; C26 ip T/C [2]: 180% |
| Cc1nc(N)nc(N)c1N1CCN(c2ccc(C(=O)N(C)N)cc2)CC1 [Example 13, 4-[4-(2,4-Diamino-6-methyl-5-pryimidinyl)-1-piperazinyl]benzoic acid, 1-methylhydrazide] | – | – | – | – | – | – | – | – | – | Antifol + FU ([3]; antifolate 1.0 nM 24 hours, 5 μM FU final 4 hours): 10% of control; Antifol + LV ([3]; antifolate 1.0 nM 24 hours, LV 10 μM final 4.5 hours): 85% of control; Antifol + LV + FU ([3]; antifolate 1.0 nM 24 hours, LV 10 μM final 4.5 hours, 5 μM FU final 4 hours): 7% of control; Antifol ([3]; antifolate 1.0 nM, 24 hours): 85% of control |
| Cc1nc(N)nc(N)c1N1CCN(c2ccc(C(=O)NN)cc2)CC1 [Example 11, 4-[4-(2,4-Diamino-6-methyl-5-pyrinidinyl)-1-piperazinyl]benzoic acid, hydrazide] | 0.0161 (≈ 0.047 µM) | 1.5 | 195 | 0.0105 (≈ 0.0307 µM) | 48% of control | 80% of control | 16% of control | 77% of control | – | P388/ADR T/C (P388/ADR leukemia): 161%; Antifol + FU [5]: 42% of control; Antifol + LV + FU [5]: 33% of control; C26 ip T/C [2]: 164%; Antifol + LV ([6]; antifolate 62.5 nM 24 hours, LV 10 μM final 4.5 hours): 80% of control; Antifol ([6]; antifolate 62.5 nM, 24 hours): 87% of control |
| O=c1[nH]cc(F)c(=O)[nH]1 [FU, 5-fluorouracil, reference compound] | – | – | – | – | – | – | – | – | – | FU (P388/ADR cells [4]; 5 μM FU alone, 4 hours): 90% of control and 90* percent of control; FU [7]: 72% of Control; FU ([3]; 5 μM FU alone, 4 hours): 90% of control and 90* percent of control |
| Cc1nc(N)nc(N)c1N1CCN(c2ccc(CNC(CCC(=O)O)C(=O)O)cc2)CC1 (centres unmarked) [A] | – | – | – | – | – | – | – | – | – | Ki (dihydrofolate reductase; read-out: Ki): 0.053 nM |
| Cc1nc(N)nc(N)c1N1CCN(c2ccc(C(=O)O)cc2)CC1 [B, 4-[4-(2,4-Diamino-6-methyl-pyrimidin-5-yl)-piperzain-1-yl]-benzoic acid] | – | – | – | – | 30% of control | 70% of control | 28% of control | 62% of control | 0.201 | – |
| Cc1nc(N)nc(N)c1N1CCN(c2ccc(S(C)(=O)=O)cc2)CC1 [E] | – | – | – | – | – | – | – | – | 0.138 | – |
| Cc1nc(N)nc(N)c1-c1ncncc1-c1ccc(C(=O)O)cc1 [Compound F, 4-[4-(2,4-Diamino-6-methyl-pyrimidin-5-yl)-pyrimidin-5-yl]-benzoic acid] | 0.04 (≈ 0.124 µM) | 1.1 | 260 | 0.033 (≈ 0.102 µM) | – | – | – | – | – | – |
| CCOC(=O)CCC(NC(=O)c1ccc(N2CCN(c3c(N)nc(N)nc3CC)CC2)cc1)C(=O)OCC (centres unmarked) [C, 2-{4-[4-(2,4-Diamino-6-ethyl-pyrimidin-5-yl)-pierazin-1-yl]-benzoylamino}pentanedioic acid diethyl ester] | – | – | – | – | 40% of control | 80% of control | 30% of control | 88% of control | 0.109 | – |

— patent publication US20040006042A1, “Diaminopyrimidines and combination therapies effective for treatment of P-glycoprotein positive cancers” (priority 1998, published 2004)
